Assays:
MDA-MB-231 = experiment: Whole-cell binding assay on OBOC peptide beads; type: cell-based, human; conditions: peptide on TentaGel beads incubated with cells at 10^6 cells/ml; repeated 3 times
Procedure: (§1) The beads were washed extensively with double-distilled water and phosphate-buffered saline (PBS; Welgene Inc., Korea) before screening. Cancer and normal cells were detached from culture dishes with trypsin/EDTA (Gibco), washed with their corresponding culture medium, resuspended at 10^6 cells/ml, and incubated with OBOC beads in Petri dishes in a humidified CO2 incubator at 37 °C with shaking (60 rpm). Beads bound by cells appeared under a microscope as rosettes in which a central bead was covered by one or more layers of cells. The positive beads were picked with a pipette under an inverted microscope, treated with guanidine-HCL (8 M, 20 min) to remove cells and proteins on the bead surface, and subjected to a second round of screening with normal breast epithelial cells to eliminate false positive binding.
(§2) Note : Semiquantitative relative binding activity: “++++” very strong binding (>40 cells per bead), “+++” strong binding (30
(§3) -20 cells per bead), “+ +” moderate binding (20 - 10 cells per bead), “+” weak binding (5-10 cells per bead), “-” no binding. […]
(§4) Figure S1. A, Steps performed in peptide library synthesis and screening. 1, The split-mix synthesis method was performed to construct the combinatorial OBOC libraries. […]
(§5) sized. 3, OBOC libraries were incubated with cancer cells in a CO2 incubator. 4, Beads carrying ligands with an affinity for cell surface molecules became covered with cells. 5, The positive beads were picked with a pipette under an inverted microscope. 6, The peptide sequences for positive beads were determined by Edman microse - […]
(§6) peptide libraries. B, The binding specificities of the peptides against cancer cell and normal cells were deter- […]
(§7) breast and colorectal cancer cells and normal breast and colorectal cells were re-suspended at 10^6 cells/ml and incubated with beads. All experiments were repeated 3 times. Scale bar, 200 μm.

HCT-116 = conditions: read-out: IC50, HCT-116; 48 h treatment, WST-1
Procedure: (§8) Cancer and normal cells (1 × 10^4 cells/well) were seeded in 96-well plates, incubated for 24 h, and then treated with increasing concentrations of AGM-330, PTX, and AGM-330-PTX for 48 h. Cell viability was assessed by the CellVia WST-1 assay (Young In Frontier) according to the manufacturer's instructions. The numbers of viable cells were measured at a wavelength of 450 nm using a VersaMax ELISA plate reader (Molecular Devices, San Jose, CA, USA).
(§9) Figure S3. A-C, Cancer and normal cells (1 × 10^4 cells/well) were seeded in 96-well plates. After 24 h of incuba-tion, the cells were treated with an increasing concentration of dimeric or tetrameric AGM-330 for 48 h. The viability of cells grown in 0 % FBS (A), 5 % FBS (B) or 10 % FBS (C) was assessed by a CellVia WST-1 assay (Young In Frontier, Seoul, Korea) according to the manufacturer’s instruction. The numbers of viable cells were measured at a wavelength of 450 nm using an VersaMax ELISA plate reader (Molecular Devices). D, E, Binding specificity of AGM-330. A whole-cell binding assay was performed to determine the cell binding of AGM-330 in 1 % FBS (D) or 5 % FBS (E). Scale bar, 200 μm.

MCF-7 = conditions: read-out: IC50, MCF-7; 48 h treatment, WST-1
Procedure: as §8, §9

HT-29 = conditions: read-out: IC50, HT-29; 48 h treatment, WST-1
Procedure: as §8, §9

CCD-18Co = conditions: read-out: IC50, CCD-18Co; 48 h treatment, WST-1
Procedure: as §8, §9

MCF-10A = experiment: Whole-cell binding assay on OBOC peptide beads; type: cell-based, human; parameters: key: ++++: very strong binding (>40 cells per bead); +++: strong binding (30 -20 cells per bead); ++: moderate binding (20 - 10 cells per bead); +: weak binding (5-10 cells per bead); -: no binding; conditions: peptide on TentaGel beads incubated with cells at 10^6 cells/ml; repeated 3 times
Procedure: as §1, §2, §3, §4, §5, §6, §7

in vivo = conditions: mouse, iv
Procedure: After 15 min of centrifugation at 5,000 rpm and 4 °C, the plasma was obtained and stored at -80 °C. Plasma peptide concentrations were quantified by ELISA, and pharmacokinetic profiles were analyzed using Phoenix WinNonlin 8.1 (Pharsight Corporation, Mountain View, CA, USA). The area under the plasma concentration-time curve (AUC), distribution half-time (T1/2), maximum plasma concentration (Cmax) and time required to reach maximum plasma concentration (Tmax) values were directly determined from the experimental data. […]
bated at 37 °C for 0, 3, 6, 9, and 24 h. The portion of serum-treated peptide remaining was determined by calcu-lating the height of the respective elution peak in analytical-HPLC and comparing it with control without incuba- […]
Plasma peptide concentrations were quantified by ELISA, and pharmacokinetic profiles were analyzed using Phoenix WinNonlin 8.1 (Pharsight Corporation, Mountain View, CA, USA). The data are presented as the means ± standard deviation.

[1] = system: PI3K/Akt phosphorylation in MDA-MB-231 cells; experiment: Immunoblot analysis of PI3K/Akt signaling; type: cell-based, human; conditions: AGM-330 10, 50, 100 μM, anti-NCL antibody 20, 50 μg/mL
Procedure: Cells were washed with PBS and lysed on ice for 30 min. Protein extracts were mixed with loading buffer, and boiled at 100 °C for 5 min. A total volume of 50 µl of the denatured protein samples were loaded on 10% gels. A voltage of 80 V was applied to samples and then adjusted to 120 V when protein reached the separation gel. Next, protein was transferred to PVDF membranes for 2 h at 4 °C. PVDF membranes were washed with TBS-T 3 times, and blocked with skim milk for 1 h at room temperature. Primary antibodies were used to detect AKT (1:1000; Abcam), p-AKT (1:1000; Abcam), PI3K (1:1000; Abcam), p-PI3K (1:1000; Abcam). Membranes were treated with primary antibody overnight at 4 °C, washed with TBS-T, and incubated with secondary antibody for 1 h at room temperature. Membranes were washed and developed.
Figure S8. A-D, Western blot analysis of PI3K/Akt signaling in MDA-MB-231 cells stimulated by increasing
concentrations of an anti-NCL antibody and AGM-330. After treatment with the anti-NCL antibody (A,B) or
AGM-330 (C,D), the protein levels of p-PI3K, PI3K, p-Akt and Akt were assessed by immunoblot analysis. The

For CSCC[C@H](NC(=O)[C@H](C)NC(=O)CNC(=O)[C@H](Cc1c[nH]cn1)NC(=O)[C@@H](N)CCCNC(=N)N)C(=O)N[C@H](C(=O)N[C@@H](Cc1ccc(O)cc1)C(=O)N[C@@H](CC(C)C)C(=O)N[C@@H](CCCCN)C(=O)NCCOCCOCCOCCOCCOCCOCCOCCOCCOCCOCCOCCOCCC(=O)NCCCC[C@H](NC(=O)CCOCCOCCOCCOCCOCCOCCOCCOCCOCCOCCOCCOCCNC(=O)[C@H](CCCCN)NC(=O)[C@H](CC(C)C)NC(=O)[C@H](Cc1ccc(O)cc1)NC(=O)[C@@H](NC(=O)[C@H](CCSC)NC(=O)[C@H](C)NC(=O)CNC(=O)[C@H](Cc1c[nH]cn1)NC(=O)[C@@H](N)CCCNC(=N)N)C(C)C)C(=O)NCCCC[C@H](NC(=O)[C@H](CCCCNC(=O)CCOCCOCCOCCOCCOCCOCCOCCOCCOCCOCCOCCOCCNC(=O)[C@H](CCCCN)NC(=O)[C@H](CC(C)C)NC(=O)[C@H](Cc1ccc(O)cc1)NC(=O)[C@@H](NC(=O)[C@H](CCSC)NC(=O)[C@H](C)NC(=O)CNC(=O)[C@H](Cc1c[nH]cn1)NC(=O)[C@@H](N)CCCNC(=N)N)C(C)C)NC(=O)CCOCCOCCOCCOCCOCCOCCOCCOCCOCCOCCOCCOCCNC(=O)[C@H](CCCCN)NC(=O)[C@H](CC(C)C)NC(=O)[C@H](Cc1ccc(O)cc1)NC(=O)[C@@H](NC(=O)[C@H](CCSC)NC(=O)[C@H](C)NC(=O)CNC(=O)[C@H](Cc1c[nH]cn1)NC(=O)[C@@H](N)CCCNC(=N)N)C(C)C)C(=O)N[C@@H](CS)C(=O)O)C(C)C [AGM-330], the “Semiquantitative relative binding activity, MDA-MB-231” value (MDA-MB-231) was “++++ (very strong binding (>40 cells per bead))”, the IC50 (HCT-116) was over 100 µM and the IC50 (MCF-7) was over 100 µM. The IC50 (HT-29) was over 100 µM, the IC50 (CCD-18Co) was over 100 µM and the “Semiquantitative relative binding activity, MCF-10A” value (MCF-10A) was “-”. For the same compound, the Cmax (in vivo) was 1880 ± 670 ng/mL, the T1/2 (in vivo) was 566 ± 72.6 min and the Tmax (in vivo) was 10 min. The “peptide remaining after 24 h in vivo” value (in vivo) was “more than 25%” and the “effect on PI3K/Akt phosphorylation” value [1] was “did not suppress”.

— article PMC7415810, “A novel nucleolin-binding peptide for Cancer Theranostics” (Theranostics, 2020)
